In patent EP0174114A1, “Platinum complexes of ascorbic acid and ascorbic acid analogs” (priority 1984, dated 1986):
“And” between values parts separate entries of the source, which are not always exact repeats. Equal entries are not always repeated.

Tested on: S180 ascites
Assay: Screening for antitumor activity against S180 ascites (increase in life span, survivors)
Type: in vivo, female CFW Swiss mice
Method: The various Pt ascorbate analogs were tested for antitumor activity against S180 ascites in female CFW Swiss mice by the following procedure.
CFW mice, averaging 20 g, are immediately inspected and placed in newly prepared cages. On day zero the mice are inoculated with 0.2 ml of a freshly prepared saline suspension (0.15 M NaCl) containing […], or a total of 2 x 10^6 cells. This inoculum is freshly prepared using "transfer" mice which have been injected with tumor cells the previous week. This inoculum is the end product of a series of steps which involve (1) the removal of the cells from the peritoneal cavity of the sacrificed transfer mouse, (2) alternate centrifugation-washing (2-3 times with cold saline) to remove occasional blood and other undesirable components, and finally (3) dilution (1:3) of the packed cell volume with saline (the final centrifugation being carried out at 1,000 rpm for 2 min). A cell count is made on a 2,000--fold dilution of this 1:3 suspension by means of a Coulter Counter. A final dilution to 1 x 10^7 cells/ml is made based on the averaged count. On day 1, solutions of the test compounds are prepared and the mice injected, with each mouse of a set of six being injected with the same test compound at the same dose level. Also, on this day, two types of controls (6 mice/set) are employed: (1) Normal (1 set): 0.5 ml of the solvent medium used for the test compound, and (2) Positive control (1 set): a known anti-tumor agent (cis-[Pt(NH3)2cI2] in saline at 8 mg/kg), used to test the response to the biological system.
The effectiveness of a compound is measured in terms of the increase in life span (% ILS) of the test animals relative to the controls (calculated from the day of tumor inoculation, day zero). In order to standardize the test data and permit intercomparisons to be made, the day of evaluation is arbitrarily taken as that day corresponding to twice the mean life-span (or average day of death) of the normal controls. This sets a practical upper limit of 100% on the ILS attainable. For calculation purposes, survivors on the day of evaluation are considered to have died on that day. The % ILS is formulated as: [formula]
ILS values above 50% represent significant activity; those above 75% represent excellent activity.

[1] = positive control of the same experiment, in saline at 8 mg/kg, 8 mg/kg
[2] = dose 10 mg/kg, administered in water
[3] = dose 20 mg/kg, administered in water
[4] = dose 40 mg/kg, administered in water
[5] = dose 80 mg/kg, administered in water
[6] = dose 160 mg/kg, administered in water
[7] = dose 320 mg/kg, administered in water
[8] = dose 640 mg/kg, administered in water
[9] = dose 800 mg/kg, administered in water
[10] = dose 1280 mg/kg, administered in water
[11] = dose 1920 mg/kg, administered in water
[12] = dose 20 mg/kg, administered in HNO3 ascorbic acid
[13] = dose 40 mg/kg, administered in HNO3 ascorbic acid
[14] = dose 80 mg/kg, administered in HNO3 ascorbic acid
[15] = dose 160 mg/kg, administered in HNO3 ascorbic acid
[16] = dose 320 mg/kg, administered in HNO3 ascorbic acid
[17] = dose 640 mg/kg, administered in HNO3 ascorbic acid
[18] = dose 5 mg/kg, administered in water
[19] = dose 5 mg/kg, administered in water, injected day 1, 5 mg/kg
[20] = dose 5 mg/kg, administered in HNO3 ascorbic acid
[21] = dose 10 mg/kg, administered in HNO3 ascorbic acid

Compound	30-Day Survivors [2]	%ILS [2]	30-Day Survivors [3]	%ILS [3]	30-Day Survivors [4]	%ILS [4]	30-Day Survivors [5]	%ILS [5]	30-Day Survivors [6]	%ILS [6]	30-Day Survivors [7]	%ILS [7]	also measured
N.N.[Cl][Pt][Cl] [Control, cis-[Pt(NH3)2cI2], reference compound]	–	–	–	–	–	–	–	–	–	–	–	–	Control 30-Day Survivors [1]: 6/6 and 1/6 and 4/6 and 3/6 and 2/6 and 0/6 and 5/6; Control %ILS [1]: 98% and 67% and 77% and 86% and 79% and 76% and 71% and 94%
[Pt (cis-dach) (isoascorbate) [[Pt(cis-dach)-(isoascorbate)]]	0/6	9%	0/6	6%	0/6	6%	0/6	17%	0/6	4% and 10%	0/6	12% and 22%	30-Day Survivors [8]: 2/6; %ILS [8]: 70%; 30-Day Survivors [9]: 2/6; %ILS [9]: 92%; 30-Day Survivors [10]: 3/6; %ILS [10]: 82%; 30-Day Survivors [11]: 0/6; %ILS [11]: 54%
[Pt(R,R-trans-dach)(ascorbate)].3H2O [[Pt(R,R-trans-dach)-(ascorbate)]]	0/6	9%	0/6	6%	0/6	9%	0/6	15% and 7%	0/6 and 0/5	–	3/6	65% and 55%	30-Day Survivors [8]: 5/6; %ILS [8]: 100%; 30-Day Survivors [9]: 5/6; %ILS [9]: 72%; 30-Day Survivors [10]: 6/6; %ILS [10]: 100%
Cis-[Pt(NH3)2(ascorbate)].2H2O [cis[Pt(NH3)2-(ascorbate)]]	0/6	-2%	0/6	6%	0/6	-6%	0/6	-1%	1/6	57%	3/6	79%	–
Pt(trans-R,R-dach)(ascorbate) [Pt(trans-R,R-dach) (ascorbate) (Ex. 12)]	–	–	–	–	–	–	–	–	–	–	–	–	30-Day Survivors [12]: 3/6; %ILS [12]: 67%; 30-Day Survivors [13]: 3/6; %ILS [13]: 83%; 30-Day Survivors [14]: 4/6; %ILS [14]: 82%; 30-Day Survivors [15]: 0/6; %ILS [15]: -75%; 30-Day Survivors [16]: 0/6; %ILS [16]: -78%; 30-Day Survivors [17]: 0/6; %ILS [17]: -94%
[Pt(cis-dach)(ascorbate)].3H2O [[Pt(cis-dach)-(ascorbate)] (Isomer VII)]	0/6	20%	0/6	20%	0/6	43%	1/6 and 2/6	71% and 79%	5/6 and 3/6	98% and 69%	0/6	-59%	30-Day Survivors [18]: 0/6; %ILS [19]: 12%
[Pt(cis-dach)(ascorbate)].3H2O [[Pt(cis-dach)-(ascorbate)] (Isomer VI)]	0/6	23%	0/6	26%	0/6	22%	6/6 and 0/6	–	4/6 and 3/6	99% and 77%	5/6	93%	30-Day Survivors [18]: 0/6; %ILS [19]: 15%
Pt(cis-dach)(ascorbate)2·2H2O [[Pt(cis-dach)-(ascorbate)2]]	0/6	21%	0/6	12%	0/6	29%	0/6	60%	5/6	97%	1/6	68%	–
Pt(ethylenediamine)(ascorbate) [listing 1 of 2 here]	0/6	4%	0/6	6%	0/6	22%	0/6	-2%	0/6	10%	0/6	24%	–
Pt(ethylenediamine)(ascorbate) [listing 2 of 2 here]	–	–	–	–	–	–	–	–	–	–	–	–	activity against Sarcoma 180 ascites tumors in comparison with the unacidified complex (after contact with an aqueous acid solution): enhanced activity; 30-Day Survivors [20]: 0/6; %ILS [20]: 3%; 30-Day Survivors [21]: 0/6; %ILS [21]: 27%; 30-Day Survivors [12]: 0/6; %ILS [12]: 45%; 30-Day Survivors [13]: 3/6; %ILS [13]: 75%; 30-Day Survivors [14]: 3/6; %ILS [14]: 93%; 30-Day Survivors [15]: 2/6; %ILS [15]: 70%
